Assay [1] deals with db/db and ob/ob mice. To be noted: db/db and ob/ob mice following treatment; cited from earlier work.
For assay [2], the system named is hepatocytes. To be noted: cited from earlier work.
Assay [3] addresses T1, Human recombinant liver glycogen phosphorylase a (hrl GPa) (Homo sapiens, UniProt P06737).
T1 sequence (P06737 1-847): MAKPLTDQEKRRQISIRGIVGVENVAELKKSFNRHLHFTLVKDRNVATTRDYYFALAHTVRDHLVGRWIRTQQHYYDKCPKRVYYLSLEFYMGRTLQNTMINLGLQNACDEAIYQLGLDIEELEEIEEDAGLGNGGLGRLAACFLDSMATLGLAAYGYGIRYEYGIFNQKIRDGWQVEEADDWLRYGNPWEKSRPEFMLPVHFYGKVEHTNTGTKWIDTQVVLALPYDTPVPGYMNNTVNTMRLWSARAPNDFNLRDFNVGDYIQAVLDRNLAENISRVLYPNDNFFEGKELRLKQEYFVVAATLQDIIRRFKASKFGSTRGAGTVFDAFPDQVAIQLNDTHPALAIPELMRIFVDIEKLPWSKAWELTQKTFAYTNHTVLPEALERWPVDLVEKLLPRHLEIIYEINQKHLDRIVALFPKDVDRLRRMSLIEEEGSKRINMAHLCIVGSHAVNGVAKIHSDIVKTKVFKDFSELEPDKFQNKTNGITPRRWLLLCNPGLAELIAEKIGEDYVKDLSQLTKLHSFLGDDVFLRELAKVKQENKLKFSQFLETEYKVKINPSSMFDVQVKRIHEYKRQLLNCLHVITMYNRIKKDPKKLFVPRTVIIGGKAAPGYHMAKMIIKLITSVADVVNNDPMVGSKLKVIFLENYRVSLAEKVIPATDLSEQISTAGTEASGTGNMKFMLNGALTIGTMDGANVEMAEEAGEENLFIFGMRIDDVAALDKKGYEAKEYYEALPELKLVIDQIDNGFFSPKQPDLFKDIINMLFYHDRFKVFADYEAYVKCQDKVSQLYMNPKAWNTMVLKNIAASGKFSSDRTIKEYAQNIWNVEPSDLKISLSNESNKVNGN
Put plainly: glycogen phosphorylase inhibition, multienzyme coupled assay of glucose-1-phosphate production from glycogen. The assay is classed as biochemical. Conditions: hrl GPa 20 nM, 6 hours at 30° C., 1% DMSO. Here is the method:
The activity of the compounds is determined by measuring the inhibitory effect of the compounds on glycogen degradation, the production of glucose-1-phosphate from glycogen is monitored by the multienzyme coupled assay, as described in EP 0 846 464 A2, general method of Pesce et al (Pesce, M A, Bodourian, S H, Harris, R C, and Nicholson, J F (1977) Clinical Chemistry 23, […]). The reactions were in 384well microplate format in a volume of 50 μl. The change in fluorescence due to the conversion of the co-factor NAD to NADH is measured at 340 nm excitation, 465nm emission in a Tecan Ultra Multifunctional Microplate Reader. The reaction is in 50 mM HEPES, 3.5 mM KH2PO4, 2.5 mM MgCl2, 2.5 mM ethylene glycol-bis(b-aminoethyl ether) N,N,N′,N′-tetraacetic acid, 100 mM KCl, 8 mM D-(+)-glucose pH7.2, containing 0.5 mM dithiothreitol, the assay buffer solution. Human recombinant liver glycogen phosphorylase a (hrl GPa) 20 nM is pre-incubated in assay buffer solution with 6.25 mM NAD, 1.25 mg type m glycogen at 1.25 mg ml^−1 the reagent buffer, for 30 minutes. […] The non-inhibited activity of GPa is measured in the presence of 10 μl 5% DMSO in assay buffer solution and maximum inhibition measured in the presence of 5 mgs ml^−1 N-ethylmaleimide. […] Relative Fluoresence Units (RFUs) are measured at 340 nm excitation, 465 nm emission. […]

For assay [4], the system named is conscious dogs. Conditions: following a glucagon challenge; cited from earlier work.

For `O=C(N[C@@H](Cc1ccc(F)cc1)C(=O)N1CCC(O)CC1)c1cc2cc(Cl)ccc2[nH]1` [CP320626], the plasma glucose concentration entry in assay [1] is “reduced, in a dose related manner”. In assay [2], the glucagon stimulated glycogenolysis result is given as “reduce” and the glucose output entry is on record as “reduce”.

One may read the IC50 as the midpoint of a concentration-inhibition curve. On to `O=C(N[C@@H]1Cc2ccccc2[C@H]1CO)c1cc2cc(Cl)ccc2[nH]1` [Example 2, 5-Chloro-N-[(1R,2R)-1-(hydroxymethyl)-2,3-dihydro-1H-inden-2-yl]-indole-2-carboxamide], for which the IC50 in assay [3] came to 868 nM.

Consider `CCN1C(C)=C(C(=O)OC(C)C)C(c2ccccc2Cl)C2=C1COC2=O` (stereo not drawn) [Bay R 3401], for which, in assay [4], the arterial plasma glucose result is “reduced significantly” and the hepatic glucose output result is listed as “reduced significantly”.

On to `CN(C)C(=O)[C@H](O)[C@H](Cc1ccccc1)NC(=O)c1cc2cc(Cl)ccc2[nH]1` [CP91149], for which, in assay [1], the plasma glucose concentration result is recorded as “reduced, in a dose related manner”. For the same molecule, in assay [2], the glucagon stimulated glycogenolysis result is given as “reduce” and the glucose output entry is on record as “reduce”.

Source of the values: patent US20060211760A1, “Indolamide derivatives which possess glycogen phosphorylase inhibitory activity” (AstraZeneca AB, priority 2003, published 2006).
